Like-named read-outs stand apart in the source and are kept apart here.
Tests used:
Assay type in all cases: cell-based
[1] = test system: L. infantum MHOM/MA(BE)/67 amastigotes in primary peritoneal mouse macrophages; experiment: Leishmania infantum intracellular amastigote assay in mouse macrophages; conditions: Macrophage, 120 h
How it was run: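 Amastigotes harvested from infected hamster spleen infected primary peritoneal mouse macrophages (5×10^5 amastigotes/well, 2 h, 37 °C). Compounds then present 5 d at 37 °C, 5% CO2. Parasite burden counted by microscopy after Giemsa staining, as % of untreated controls; IC50 from sigmoidal variable-slope fit.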

[2] = test system: IL3000 T. congolense (drug sensitive) strain; experiment: In vitro Alamar Blue 72 h drug sensitivity assay for T. congolense; conditions: Trypanosoma congolense; bloodstream form, 69 h + 3 h resazurin, 34° C.; classes A-C; read-out: IC50: I Org. Growth T. congolense IL-3000, 3 d
How it was run: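 Bloodstream-form trypanosomes in HMI medium with 20% bovine serum, exposed to compound for 69 h at 34 °C, 5% CO2, then resazurin for 3 h more. Fluorescence read at 536/588 nm. IC50 from 11-point sigmoidal dose-response curves, at least three independent runs.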

[3] = test system: promastigote forms of L. major; experiment: Leishmania major promastigote growth inhibition assay (Alamar Blue); conditions: promastigotes, 44 hours + 4 hours Alamar Blue, read-out: IC50: I Org. promastigote Growth L. major, 2 d
Excerpt: Example 108. Leishmania major Promastigote Growth Inhibition Assay
The promastigote assay is a microtiter plate drug sensitivity prescreen assay used to determine antileishmanial activity of candidate drugs against promastigote forms of L. major. (Shadow et al., PLOS Neglected Tropical Diseases, 2009, e311.) Alamar Blue, or resazurin, is a non-fluorescent indicator dye that is converted to bright red-fluorescent resorufin via the activity of mitochondrial reductases. As the activity of mitochondrial reductases is reduced in cells that are dead or dying, and the intensity of the fluorescence is relative to cell number, a test compound that kills or inhibits growth of a particular target cell, such as L. major, will result in a lower production of fluorescent signal. Pre-dosed microtiter drug plates for use in the promastigote drug prescreen assay were produced using sterile 384-well black optical bottom tissue culture plates (Nunc Cat #12-565-344). Candidate drugs were diluted in dimethyl sulfoxide in four 96-well plates to either 10,000 ng/ml or 1,000 ng/ml, and 4.25 μL of diluted drug was subsequently dispensed into each well of a 384-well plate. Duplicate 384 well plates were made at each test concentration (10,000 ng/mL and 1,000 ng/mL) and amphotericin B was used as a batch control. The Tecan EVO Freedom liquid handling system (Tecan US, Inc., Durham, N.C.) was used to produce all drug assay plates and conduct all pipetting operations for this assay. L. major parasites were cultured in Schneider's medium (Lonza Cat #04-351Q) supplemented with 20% heat inactivated FBS (Invitrogen Cat #16140-089). Promastigotes in early log growth phase were harvested from culture, counted, suspended at 1.32×10^5 cells/mF and 5,000 promastigotes were dispensed into each well of the 384 well plate in a volume of 38.8 μL. The 384 well plates were subsequently incubated at 28° C. for 44 hours. 8.4 μF of Alamar Blue (Promega, Cat #G8081) was added to each well, the plates were subsequently incubated at 28° C. and 5% CO2 for 4 hours and then examined for the relative fluorescence units (RFU) per well using the Tecan Genios Plus (Tecan US, Inc., Durham, N.C.) with excitation set at 560 nm and emission set at 590 nm. The relative fluorescence from each well was used to determine the percent growth inhibition of each candidate compound tested. Compounds with 50% or greater inhibition of growth were selected for further analysis to determine IC50 values.

[4] = amastigotes in primary peritoneal mouse macrophages, 5 d, Giemsa staining, read-out: Inhibition of Organism Growth in Leishmania infantum MHOM/MA/BE/67, 5 d
[5] = read-out: Inhibition of Organism Growth in Leishmania infantum MHOM/MA/BE/67, 5 d [uM]

| SMILES | IC50 [1, 4] [µM] | IC50 [2] [nM] | IC50 [3] [nM] | IC50 [1, 5] [µM] |
| --- | --- | --- | --- | --- |
| O=C(Nc1ccc2c(c1)B(O)OC2)c1nnn(-c2ccc(F)cc2)c1C(F)(F)F [Example 70, 1-(4-Fluorophenyl)-N-(1-hydroxy-1,3-dihydrobenzo[c][1,2]oxaborol-6-yl)-5-(trifluoromethyl)-1H-1,2,3-triazole-4-carboxamide] | < 3 | 100 to 300 | – | – |
| O=C(Nc1ccc2c(c1)B(O)OC21CCC1)c1cn(-c2cccnc2)nn1 [Example 8, N-(1-hydroxy-1H-spiro[benzo[c][1,2]oxaborole-3,1′-cyclobutan]-6-yl)-1-(pyridin-3-yl)-1H-1,2,3-triazole-4-carboxamide] | – | 310 to 100000 | 2510 to 20000 | – |
| COc1ccc(-n2cc(C(=O)Nc3ccc4c(c3)B(O)OC4C)nn2)cc1 (centres unmarked) [Example 22, N-(1-hydroxy-3-methyl-1,3-dihydrobenzo[c][1,2]oxaborol-6-yl)-1-(4-methoxyphenyl)-1H-1,2,3-triazole-4-carboxamide] | – | 100 to 300 | < 600 | – |
| Cc1c(C(=O)Nc2ccc3c(c2)B(O)OC3C)nnn1-c1ccccn1 (centres unmarked) [Example 24, N-(1-hydroxy-3-methyl-1,3-dihydrobenzo[c][1,2]oxaborol-6-yl)-5-methyl-1-(pyridin-2-yl)-1H-1,2,3-triazole-4-carboxamide] | – | < 100 | 600 to 2500 | – |
| O=C(Nc1ccc2c(c1)B(O)OC2)c1nnn(-c2ccccc2F)c1C(F)(F)F [Example 67, 1-(2-Fluorophenyl)-N-(1-hydroxy-1,3-dihydrobenzo[c][1,2]oxaborol-6-yl)-5-(trifluoromethyl)-1H-1,2,3-triazole-4-carboxamide] | 20 to 100 | 100 to 300 | – | – |
| COc1ccc(-n2cc(C(=O)Nc3ccc4c(c3)B(O)OC4)nn2)cc1 [Example 21, N-(1-hydroxy-1,3-dihydrobenzo[c][1,2]oxaborol-6-yl)-1-(4-methoxyphenyl)-1H-1,2,3-triazole-4-carboxamide] | – | < 100 | < 600 | – |
| COc1ccc(-n2nnc(C(=O)Nc3ccc4c(c3)B(O)OC43CCC3)c2C)cc1 [Example 20, N-(1-hydroxy-1H-spiro[benzo[c][1,2]oxaborole-3,1′-cyclobutan]-6-yl)-1-(4-methoxyphenyl)-5-methyl-1H-1,2,3-triazole-4-carboxamide] | – | 310 to 100000 | < 600 | – |
| Cc1ccc(-n2nnc(C(=O)Nc3ccc4c(c3)B(O)OC43CCC3)c2C)cc1 [Example 16, N-(1-hydroxy-1H-spiro[benzo[c][1,2]oxaborole-3,1′-cyclobutan]-6-yl)-5-methyl-1-(p-tolyl)-1H-1,2,3-triazole-4-carboxamide] | – | 310 to 100000 | 600 to 2500 | – |
| Cc1ccc(-n2cc(C(=O)Nc3ccc4c(c3)B(O)OC4C)nn2)cc1 (centres unmarked) [Example 18, N-(1-hydroxy-3-methyl-1,3-dihydrobenzo[c][1,2]oxaborol-6-yl)-1-(p-tolyl)-1H-1,2,3-triazole-4-carboxamide] | – | < 100 | 600 to 2500 | – |
| O=C(Nc1ccc2c(c1)B(O)OC2)c1cn(-c2ccc(F)cc2)nn1 [Example 60, 1-(4-Fluorophenyl)-N-(1-hydroxy-1,3-dihydrobenzo[c][1,2]oxaborol-6-yl)-1H-1,2,3-triazole-4-carboxamide] | < 3 | < 100 | – | – |
| O=C(Nc1ccc2c(c1)B(O)OC2)c1nnn(-c2ccccc2)c1C(F)(F)F [Example 68, N-(1-hydroxy-1,3-dihydrobenzo[c][1,2]oxaborol-6-yl)-1-phenyl-5-(trifluoromethyl)-1H-1,2,3-triazole-4-carboxamide] | – | – | – | < 3 |
| Cc1ccc(-n2nnc(C(=O)Nc3ccc4c(c3)B(O)OC4)c2C)cc1 [Example 11, N-(1-hydroxy-1,3-dihydrobenzo[c][1,2]oxaborol-6-yl)-5-methyl-1-(p-tolyl)-1H-1,2,3-triazole-4-carboxamide] | – | < 100 | < 600 | – |
| Cc1c(C(=O)Nc2ccc3c(c2)B(O)OC32CCC2)nnn1-c1ccccc1 [Example 4, N-(1-hydroxy-1H-spiro[benzo[c][1,2]oxaborole-3,1′-cyclobutan]-6-yl)-5-methyl-1-phenyl-1H-1,2,3-triazole-4-carboxamide] | – | 100 to 300 | 600 to 2500 | – |
| CC1OB(O)c2cc(NC(=O)c3cn(-c4ccccc4)nn3)ccc21 (centres unmarked) [Example 2] | – | < 100 | < 600 | – |
| Cc1c(C(=O)Nc2ccc3c(c2)B(O)OC3C)nnn1-c1ccc(F)cc1 (centres unmarked) [Example 6, 1-(4-fluorophenyl)-N-(1-hydroxy-3-methyl-1,3-dihydrobenzo[c][1,2]oxaborol-6-yl)-5-methyl-1H-1,2,3-triazole-4-carboxamide] | – | 100 to 300 | 600 to 2500 | – |
| CC1OB(O)c2cc(NC(=O)c3cn(-c4cccnc4)nn3)ccc21 (centres unmarked) [Example 12, N-(1-hydroxy-3-methyl-1,3-dihydrobenzo[c][1,2]oxaborol-6-yl)-1-(pyridin-3-yl)-1H-1,2,3-triazole-4-carboxamide] | – | < 100 | 2510 to 20000 | – |
| CC1OB(O)c2cc(NC(=O)c3cn(-c4ccccn4)nn3)ccc21 (centres unmarked) [Example 23, N-(1-hydroxy-3-methyl-1,3-dihydrobenzo[c][1,2]oxaborol-6-yl)-1-(pyridin-2-yl)-1H-1,2,3-triazole-4-carboxamide] | – | < 100 | < 600 | – |
| Cc1ccc(-n2cc(C(=O)Nc3ccc4c(c3)B(O)OC43CCC3)nn2)cc1 [Example 15] | – | 100 to 300 | 2510 to 20000 | – |
| Cc1c(C(=O)Nc2ccc3c(c2)B(O)OC32CCC2)nnn1-c1ccc(F)cc1 [Example 9, 1-(4-fluorophenyl)-N-(1-hydroxy-1H-spiro[benzo[c][1,2]oxaborole-3,1′-cyclobutan]-6-yl)-5-methyl-1H-1,2,3-triazole-4-carboxamide] | – | 310 to 100000 | 600 to 2500 | – |
| Cc1c(C(=O)Nc2ccc3c(c2)B(O)OC3)nnn1-c1ccccc1 [Example 89, A-(1-hydroxy-1,3-dihydrobenzo[c][1,2]oxaborol-6-yl)-5-methyl-1-phenyl-1H-1,2,3-triazole-4-carboxamide] | – | – | – | 20 to 100 |
| O=C(Nc1ccc2c(c1)B(O)OC2)c1nnn(-c2cccc(F)c2)c1C(F)(F)F [Example 69, 1-(3-Fluorophenyl)-N-(1-hydroxy-1,3-dihydrobenzo[c][1,2]oxaborol-6-yl)-5-(trifluoromethyl)-1H-1,2,3-triazole-4-carboxamide] | < 3 | 100 to 300 | – | – |
| O=C(Nc1ccc2c(c1)B(O)OC2)c1nnn(-c2cccnc2)c1C(F)(F)F [Example 71, N-(1-hydroxy-1,3-dihydrobenzo[c][1,2]oxaborol-6-yl)-1-(pyridin-3-yl)-5-(trifluoromethyl)-1H-1,2,3-triazole-4-carboxamide] | < 3 | < 100 | – | – |
| Cc1c(C(=O)Nc2ccc3c(c2)B(O)OC32CCC2)nnn1-c1cccnc1 [Example 17, N-(1-hydroxy-1H-spiro[benzo[c][1,2]oxaborole-3,1′-cyclobutan]-6-yl)-5-methyl-1-(pyridin-3-yl)-1H-1,2,3-triazole-4-carboxamide] | – | 310 to 100000 | 2510 to 20000 | – |
| COc1ccc(-n2nnc(C(=O)Nc3ccc4c(c3)B(O)OC4C)c2C)cc1 (centres unmarked) [Example 19, N-(1-hydroxy-3-methyl-1,3-dihydrobenzo[c][1,2]oxaborol-6-yl)-1-(4-methoxyphenyl)-5-methyl-1H-1,2,3-triazole-4-carboxamide] | – | 100 to 300 | 600 to 2500 | – |
| Cc1ccc(-n2cc(C(=O)Nc3ccc4c(c3)B(O)OC4)nn2)cc1 [Example 10, N-(1-hydroxy-1,3-dihydrobenzo[c][1,2]oxaborol-6-yl)-1-(p-tolyl)-1H-1,2,3-triazole-4-carboxamide] | – | < 100 | < 600 | – |
| Cc1ccc(-n2nnc(C(=O)Nc3ccc4c(c3)B(O)OC4C)c2C)cc1 (centres unmarked) [Example 13, N-(1-hydroxy-3-methyl-1,3-dihydrobenzo[c][1,2]oxaborol-6-yl)-5-methyl-1-(p-tolyl)-1H-1,2,3-triazole-4-carboxamide] | – | 100 to 300 | 600 to 2500 | – |
